Experiment [1] has as its target T1, Fatty acid synthase (Homo sapiens, UniProt P49327). The experiment can be described thus: inhibition of human FAS-TE enzyme activity – biochemical, endpoint fluorescence intensity, uHTS hits, dose response (AID 624327).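 Note: fluorescence from hydrolysis of an O-methyl fluorescein acyl ester substrate by the enzyme.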 Format: functional.
Experiment [2] concerns the target T2, Voltage-gated N-type calcium channel alpha-1B subunit/Amyloid beta A4 precursor protein-binding family A member 1 (Homo sapiens, UniProt Q00975+Q02410). Format: protein assay.
A further experiment deals with Genome polyprotein (dengue virus type 2, UniProt P29990). The experiment is described as follows: flavivirus cap methylation enzyme inhibition – biochemical, confirmation dose response, primary screen (AID 588689). Format: functional.
Experiment [3] concerns the target T2, Voltage-gated N-type calcium channel alpha-1B subunit/Amyloid beta A4 precursor protein-binding family A member 1. It counts as protein assay. This is another data set of the same source.
Experiment [4] concerns the target T1, Fatty acid synthase. The experiment can be described thus: inhibition of human FAS-TE enzyme activity – biochemical, kinetic fluorescence intensity, dose response (AID 624326).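 Note: rate of fluorescence rise from hydrolysis of a fluorogenic O-methyl fluorescein ester substrate.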 Format: functional.
A further experiment has as its target Aspartyl aminopeptidase (Plasmodium falciparum 3D7, UniProt Q8I2J3).
The target in experiment [5] is RNA-editing ligase 1, mitochondrial (Trypanosoma brucei brucei, UniProt P86926). The experiment can be described thus: inhibition of trypanosome RNA editing ligase – biochemical, fluorescence, Trypanosoma brucei, dose response (AID 1117295). Format: functional.
Experiment [6] addresses Intestinal-type alkaline phosphatase (Mus musculus, UniProt P24822). The experiment is described as follows: mouse intestinal alkaline phosphatase activators, dose response, biochemical, luminescence, uHTS hits (AID 488783). Format: functional.
Another experiment addresses Ephrin type-A receptor 4 (Mus musculus, UniProt Q03137). The experiment can be described thus: EphA4 ligand-binding antagonists – biochemical, colorimetric, mouse EphA4, primary screen (AID 689). It counts as functional.
In the next experiment the target is T3, Bcl-2-like protein 10 (Homo sapiens, UniProt Q9HD36).
T3 sequence (Q9HD36 whole entry): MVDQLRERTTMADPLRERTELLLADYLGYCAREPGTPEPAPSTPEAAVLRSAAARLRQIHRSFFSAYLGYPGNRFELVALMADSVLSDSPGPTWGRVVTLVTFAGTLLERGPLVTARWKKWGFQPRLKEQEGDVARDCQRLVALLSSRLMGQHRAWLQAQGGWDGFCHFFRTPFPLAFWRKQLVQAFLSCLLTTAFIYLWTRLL
The experiment can be described thus: Bcl-B/TR3 peptide binding disruption – biochemical, fluorescence polarization, FITC-TR3 peptide, selectivity assay for Bfl-1 inhibitor project, primary screen (AID 748).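 Note: fluorescence polarization from a fluorescein-labelled TR3 peptide binding purified Bcl-B.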 A general note: In fluorescence polarisation assays a small probe gives low polarisation when free and higher when bound to something large.

For another experiment, the target named is Procathepsin L (Homo sapiens, UniProt P07711).
Chain of Procathepsin L (P07711 whole entry, canonical isoform): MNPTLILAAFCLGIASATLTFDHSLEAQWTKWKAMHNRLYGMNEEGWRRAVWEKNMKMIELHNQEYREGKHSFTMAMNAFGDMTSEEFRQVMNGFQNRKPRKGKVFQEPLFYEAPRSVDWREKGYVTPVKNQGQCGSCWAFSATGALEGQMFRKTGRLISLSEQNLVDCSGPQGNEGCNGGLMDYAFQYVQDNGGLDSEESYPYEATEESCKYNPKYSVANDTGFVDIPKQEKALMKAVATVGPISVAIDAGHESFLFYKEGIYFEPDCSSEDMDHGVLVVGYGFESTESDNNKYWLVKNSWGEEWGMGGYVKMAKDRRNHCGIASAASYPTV
Experiment [7] deals with Casein kinase I isoform alpha (Homo sapiens, UniProt P48729). Format: functional.
The target of experiment [8] is Testis-specific serine/threonine-protein kinase 1 (Homo sapiens, UniProt Q9BXA7). It counts as functional.
In experiment [9] the target is Proto-oncogene tyrosine-protein kinase Src (Homo sapiens, UniProt P12931). It counts as functional.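 Note: SRC entry within a kinome-wide kinase profiling panel.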
Chain of Proto-oncogene tyrosine-protein kinase Src (P12931 2-536 limits assumed): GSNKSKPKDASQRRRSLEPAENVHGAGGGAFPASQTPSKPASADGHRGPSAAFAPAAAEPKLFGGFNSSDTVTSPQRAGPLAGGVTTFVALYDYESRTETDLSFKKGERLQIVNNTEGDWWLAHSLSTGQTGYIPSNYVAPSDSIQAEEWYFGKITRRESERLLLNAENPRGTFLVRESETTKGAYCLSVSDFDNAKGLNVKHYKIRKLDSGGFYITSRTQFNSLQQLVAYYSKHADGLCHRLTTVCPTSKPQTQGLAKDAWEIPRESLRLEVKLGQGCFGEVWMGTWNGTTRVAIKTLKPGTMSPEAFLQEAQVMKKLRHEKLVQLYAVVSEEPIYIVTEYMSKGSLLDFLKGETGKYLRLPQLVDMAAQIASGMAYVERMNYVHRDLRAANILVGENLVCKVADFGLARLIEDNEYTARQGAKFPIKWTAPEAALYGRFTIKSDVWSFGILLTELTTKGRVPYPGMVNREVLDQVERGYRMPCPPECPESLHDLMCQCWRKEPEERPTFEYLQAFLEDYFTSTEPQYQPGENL
Experiment [10] concerns the target Serine/threonine-protein kinase pim-1 (Homo sapiens, UniProt P11309). It counts as functional.
Experiment [11] deals with Calcium/calmodulin-dependent protein kinase type II subunit gamma (Homo sapiens, UniProt Q13555). Format: functional.
The target in experiment [12] is T4, Serine/threonine-protein kinase Chk1 (Homo sapiens, UniProt O14757).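 Note: measured as one member of a kinome-wide kinase profiling panel.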
T4 sequence (O14757 whole entry): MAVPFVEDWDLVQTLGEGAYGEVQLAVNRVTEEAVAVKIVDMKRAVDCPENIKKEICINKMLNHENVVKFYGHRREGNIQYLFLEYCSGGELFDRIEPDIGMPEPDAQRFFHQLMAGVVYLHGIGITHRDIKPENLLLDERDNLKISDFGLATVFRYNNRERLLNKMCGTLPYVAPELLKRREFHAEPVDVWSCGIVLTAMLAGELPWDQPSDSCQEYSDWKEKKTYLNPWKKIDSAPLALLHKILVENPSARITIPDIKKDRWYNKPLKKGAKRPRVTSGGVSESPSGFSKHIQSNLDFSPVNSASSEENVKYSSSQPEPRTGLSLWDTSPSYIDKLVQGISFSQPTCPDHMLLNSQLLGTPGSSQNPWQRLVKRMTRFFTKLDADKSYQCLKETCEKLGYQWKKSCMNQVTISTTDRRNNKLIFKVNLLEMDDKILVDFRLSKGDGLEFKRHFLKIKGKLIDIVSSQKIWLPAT
It counts as functional.

The target in experiment [13] is Homeodomain-interacting protein kinase 4 (Homo sapiens, UniProt Q8NE63). Format: functional.
In experiment [14] the target is Calcium/calmodulin-dependent protein kinase type 1 (Homo sapiens, UniProt Q14012). Format: functional.
Chain of Calcium/calmodulin-dependent protein kinase type 1 (Q14012 whole entry): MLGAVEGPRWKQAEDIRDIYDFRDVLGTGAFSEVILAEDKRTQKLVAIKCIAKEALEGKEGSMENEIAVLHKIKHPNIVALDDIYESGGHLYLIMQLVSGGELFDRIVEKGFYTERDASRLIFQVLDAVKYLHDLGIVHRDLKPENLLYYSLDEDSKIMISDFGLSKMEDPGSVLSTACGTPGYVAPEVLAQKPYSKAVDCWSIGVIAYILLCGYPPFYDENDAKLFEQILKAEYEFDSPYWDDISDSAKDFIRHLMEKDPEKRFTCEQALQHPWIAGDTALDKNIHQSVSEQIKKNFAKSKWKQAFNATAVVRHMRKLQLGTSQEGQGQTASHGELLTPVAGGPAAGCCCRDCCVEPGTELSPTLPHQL
Experiment [15] concerns the target Cell division cycle 7-related protein kinase (Homo sapiens, UniProt O00311). Format: functional.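 Note: value obtained from a kinome-wide kinase panel.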
Experiment [16] addresses cGMP-dependent protein kinase 1 (Homo sapiens, UniProt Q13976). Format: functional.
For experiment [17], the target named is Fibroblast growth factor receptor 1 (Homo sapiens, UniProt P11362). It counts as functional.
The target of experiment [18] is Rho-associated protein kinase 1 (Homo sapiens, UniProt Q13464). It counts as functional.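 Note: measured within a broad kinome-wide panel profiling many kinases.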
Experiment [19] addresses Calcium/calmodulin-dependent protein kinase type II subunit delta (Homo sapiens, UniProt Q13557). It counts as functional.
In experiment [20] the target is Interleukin-1 receptor-associated kinase 4 (Homo sapiens, UniProt Q9NWZ3). It counts as functional.
Chain of Interleukin-1 receptor-associated kinase 4 (Q9NWZ3 whole entry): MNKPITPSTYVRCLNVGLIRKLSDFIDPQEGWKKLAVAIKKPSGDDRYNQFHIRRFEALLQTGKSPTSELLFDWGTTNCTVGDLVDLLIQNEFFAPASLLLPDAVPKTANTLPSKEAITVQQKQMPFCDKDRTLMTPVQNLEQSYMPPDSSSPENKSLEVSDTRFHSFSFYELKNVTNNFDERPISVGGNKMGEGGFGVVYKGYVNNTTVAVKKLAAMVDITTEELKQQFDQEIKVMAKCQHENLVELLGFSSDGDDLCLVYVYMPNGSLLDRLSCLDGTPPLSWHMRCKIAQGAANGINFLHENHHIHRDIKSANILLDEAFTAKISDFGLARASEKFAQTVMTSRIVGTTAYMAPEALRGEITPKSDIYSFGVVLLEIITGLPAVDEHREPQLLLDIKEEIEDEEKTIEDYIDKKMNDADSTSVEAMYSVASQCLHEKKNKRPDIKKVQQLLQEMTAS
For experiment [21], the target named is Receptor tyrosine-protein kinase erbB-2 (Homo sapiens, UniProt P04626). The experiment is described as follows: Navigating the Kinome. Panel member name: ERBB2. Format: functional.
The target of experiment [22] is MAP/microtubule affinity-regulating kinase 3 (Homo sapiens, UniProt P27448). Format: functional.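 Note: MARK3 affinity measured as one member of a kinome panel.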
The target of experiment [23] is Serine/threonine-protein kinase 17A (Homo sapiens, UniProt Q9UEE5). It counts as functional.
The target in a further experiment is Focal adhesion kinase 1 (Homo sapiens, UniProt Q05397). It counts as functional.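 Note: measured as one member of a kinome panel.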
Experiment [24] addresses Insulin-like growth factor 1 receptor (Homo sapiens, UniProt P08069). The experiment can be described thus: Navigating the Kinome. Panel member name: IGF1R. It counts as functional.
The target in experiment [25] is Tyrosine-protein kinase Srms (Homo sapiens, UniProt Q9H3Y6). It counts as functional.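 Note: SRMS measured as one member of a kinome-wide kinase profiling panel.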
For experiment [26], the target named is C-C chemokine receptor type 6 (Homo sapiens, UniProt P51684). The experiment is described as follows: antagonism of CCR6 beta-arrestin recruitment – cell-based, luminescent beta-arrestin readout, dose response (AID 504728). Format: functional.
The test system of a further experiment is BJ. The experiment can be described thus: BJ-TERT fibroblast viability loss – cell-based, RAS-independent, luminescence, dose response (AID 1933). To be noted: Homo sapiens. Format: functional.

From ChEMBL document CHEMBL1201862, “PubChem BioAssay data set” (2004) come the findings set out here.

Activity calls are given as the source filed them.

T1 sequence (P49327 whole entry): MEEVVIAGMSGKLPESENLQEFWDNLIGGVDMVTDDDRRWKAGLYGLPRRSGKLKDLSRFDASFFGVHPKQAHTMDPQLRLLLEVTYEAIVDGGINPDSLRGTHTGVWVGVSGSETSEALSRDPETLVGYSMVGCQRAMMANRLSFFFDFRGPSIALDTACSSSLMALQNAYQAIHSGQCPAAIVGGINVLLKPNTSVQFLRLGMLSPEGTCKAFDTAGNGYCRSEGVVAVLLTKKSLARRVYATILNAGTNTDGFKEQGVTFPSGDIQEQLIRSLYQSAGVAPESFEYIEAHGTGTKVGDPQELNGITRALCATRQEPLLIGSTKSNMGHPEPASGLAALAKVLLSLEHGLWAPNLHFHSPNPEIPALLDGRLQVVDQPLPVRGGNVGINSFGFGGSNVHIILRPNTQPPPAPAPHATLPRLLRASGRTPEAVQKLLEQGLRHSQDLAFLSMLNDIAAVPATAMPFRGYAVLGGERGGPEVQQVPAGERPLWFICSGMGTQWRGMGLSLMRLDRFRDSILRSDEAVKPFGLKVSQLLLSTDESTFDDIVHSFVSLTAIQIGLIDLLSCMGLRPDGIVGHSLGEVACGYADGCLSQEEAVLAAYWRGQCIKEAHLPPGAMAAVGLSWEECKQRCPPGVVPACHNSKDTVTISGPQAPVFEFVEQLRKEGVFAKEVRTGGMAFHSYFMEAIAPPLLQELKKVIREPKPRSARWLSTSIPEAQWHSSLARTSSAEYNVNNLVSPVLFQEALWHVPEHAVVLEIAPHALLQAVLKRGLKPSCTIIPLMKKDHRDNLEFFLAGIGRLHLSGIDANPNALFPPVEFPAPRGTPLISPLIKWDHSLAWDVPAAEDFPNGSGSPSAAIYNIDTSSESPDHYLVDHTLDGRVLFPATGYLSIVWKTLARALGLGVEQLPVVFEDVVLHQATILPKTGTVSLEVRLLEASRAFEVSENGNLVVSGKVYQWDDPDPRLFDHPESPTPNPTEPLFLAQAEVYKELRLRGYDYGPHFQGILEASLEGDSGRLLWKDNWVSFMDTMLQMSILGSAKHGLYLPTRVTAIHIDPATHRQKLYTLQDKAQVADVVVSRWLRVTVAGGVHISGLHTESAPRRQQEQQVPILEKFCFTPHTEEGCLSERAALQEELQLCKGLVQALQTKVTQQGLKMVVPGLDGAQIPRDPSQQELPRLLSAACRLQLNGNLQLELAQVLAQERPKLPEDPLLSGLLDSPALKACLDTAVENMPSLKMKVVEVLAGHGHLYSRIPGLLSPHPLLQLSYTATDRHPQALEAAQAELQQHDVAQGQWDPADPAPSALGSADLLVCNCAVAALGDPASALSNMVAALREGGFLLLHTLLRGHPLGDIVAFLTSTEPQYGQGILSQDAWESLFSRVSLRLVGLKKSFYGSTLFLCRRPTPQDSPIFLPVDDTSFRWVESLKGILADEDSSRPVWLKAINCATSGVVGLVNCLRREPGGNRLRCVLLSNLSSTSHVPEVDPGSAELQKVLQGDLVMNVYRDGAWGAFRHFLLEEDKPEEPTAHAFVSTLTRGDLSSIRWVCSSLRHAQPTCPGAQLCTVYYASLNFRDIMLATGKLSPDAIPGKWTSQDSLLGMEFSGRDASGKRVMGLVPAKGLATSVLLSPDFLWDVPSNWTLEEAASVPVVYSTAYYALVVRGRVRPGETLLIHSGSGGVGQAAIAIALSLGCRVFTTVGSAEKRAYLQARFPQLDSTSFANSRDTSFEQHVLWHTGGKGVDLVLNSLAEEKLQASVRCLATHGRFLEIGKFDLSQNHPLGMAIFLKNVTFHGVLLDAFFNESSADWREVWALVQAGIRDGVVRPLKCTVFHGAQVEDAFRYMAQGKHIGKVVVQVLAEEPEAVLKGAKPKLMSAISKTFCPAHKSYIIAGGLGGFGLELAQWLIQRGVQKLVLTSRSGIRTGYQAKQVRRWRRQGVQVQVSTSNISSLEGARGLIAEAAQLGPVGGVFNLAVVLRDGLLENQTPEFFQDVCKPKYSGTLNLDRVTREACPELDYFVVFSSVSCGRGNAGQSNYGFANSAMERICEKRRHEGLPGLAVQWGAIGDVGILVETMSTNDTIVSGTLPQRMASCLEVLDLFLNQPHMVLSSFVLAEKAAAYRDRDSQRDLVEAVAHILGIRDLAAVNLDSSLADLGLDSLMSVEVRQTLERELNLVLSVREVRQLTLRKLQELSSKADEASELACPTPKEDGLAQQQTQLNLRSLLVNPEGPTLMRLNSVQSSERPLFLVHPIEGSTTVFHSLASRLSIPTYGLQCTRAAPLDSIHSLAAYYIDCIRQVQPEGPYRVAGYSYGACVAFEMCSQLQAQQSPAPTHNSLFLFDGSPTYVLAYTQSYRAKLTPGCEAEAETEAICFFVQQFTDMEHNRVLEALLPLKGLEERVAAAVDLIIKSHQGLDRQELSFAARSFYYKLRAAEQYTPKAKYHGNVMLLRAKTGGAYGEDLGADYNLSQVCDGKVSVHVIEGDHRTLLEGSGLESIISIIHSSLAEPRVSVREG
Chain of Cell division cycle 7-related protein kinase (O00311 whole entry): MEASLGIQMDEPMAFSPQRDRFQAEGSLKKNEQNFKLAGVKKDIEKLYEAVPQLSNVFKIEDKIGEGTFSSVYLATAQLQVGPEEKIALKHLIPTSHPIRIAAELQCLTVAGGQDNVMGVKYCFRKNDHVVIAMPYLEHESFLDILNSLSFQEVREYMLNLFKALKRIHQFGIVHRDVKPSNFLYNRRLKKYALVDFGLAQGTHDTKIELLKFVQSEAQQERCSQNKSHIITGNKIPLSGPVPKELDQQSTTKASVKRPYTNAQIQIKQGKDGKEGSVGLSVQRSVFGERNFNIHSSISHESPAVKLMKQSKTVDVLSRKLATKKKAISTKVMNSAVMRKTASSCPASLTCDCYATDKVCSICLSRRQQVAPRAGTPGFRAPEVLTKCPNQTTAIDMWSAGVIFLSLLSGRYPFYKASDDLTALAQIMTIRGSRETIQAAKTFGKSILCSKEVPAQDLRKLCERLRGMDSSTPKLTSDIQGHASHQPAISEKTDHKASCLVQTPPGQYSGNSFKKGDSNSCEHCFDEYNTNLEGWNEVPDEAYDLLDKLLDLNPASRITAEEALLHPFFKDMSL

Turning to `CC(=O)N(C1=C(Cl)C(=O)c2ccccc2C1=O)C1CCCCC1`, the half-inhibitory concentration (IC50) is 3.02 µM (active) at Fatty acid synthase [1]; 3.65 µM (active) in experiment [2]; 38.3 µM (active) on Genome polyprotein; 0.745 µM (active) in [3]; 4.54 µM (active) at Fatty acid synthase [4].
Regarding `Oc1ccc(-c2cn3c(n2)SCC3)cc1O`, the IC50 on Aspartyl aminopeptidase was 1.55 µM (active); in experiment [5] it was > 96.6 µM (inactive); at Ephrin type-A receptor 4, 42.3 µM (active); at Bcl-2-like protein 10, 79.1 µM (inactive); on Procathepsin L, > 59.6 µM (not active). In [6], the EC50 is 21 µM (active).
For `O=C1Nc2ccc3ncsc3c2C1=CNc1ccc(S(=O)(=O)Nc2ccccn2)cc1`, the inhibition constant (Ki) in experiment [7] was 0.794 µM (active); in experiment [8], 0.316 µM (active); in experiment [9], 0.158 µM (active); in experiment [10] it was 1.58 µM (active); in [11], 0.2 µM (active); in [12], 0.158 µM (active). Also, the inhibition constant Ki in [13] was 2 µM (active); in experiment [14] it was > 1.26 µM (inactive); in experiment [15], 0.126 µM (active); in experiment [16] it was 0.126 µM (active); in experiment [17], 0.0251 µM (active); in [18], 0.316 µM (active). The inhibitory constant (Ki) in experiment [19] is 0.0794 µM (active); in [20] it was 1.58 µM (active); in experiment [21] it was > 1.58 µM (inactive); in experiment [22], 0.0398 µM (active); in experiment [23] it was 0.00398 µM (active); at Focal adhesion kinase 1, > 1.58 µM (inactive). Further, the Ki in experiment [24] is > 2 µM (inactive); in experiment [25], > 1.58 µM (inactive).
Regarding `Cc1ccc(NC2=C/C(=N\S(=O)(=O)c3cccs3)c3ccccc3C2=O)c(C)c1`, in experiment [26], the IC50 is > 66.6 µM (inactive). In addition, in the experiment with BJ, the EC50 is 2.51 µM (active).

In general, IC50 refers to the midpoint of a concentration-inhibition curve. A word on the EC50: it is the midpoint of the concentration-response curve. Usually Ki stands for the dissociation constant of the complex between target and ligand, obtained from inhibition or displacement.
